# Laboratory results from paper PMC6910946, “Multiple roles of Bet v 1 ligands in allergen stabilization and modulation of endosomal protease activity” (Allergy, 2019).
# Like-named read-outs stand apart in the source and are kept apart here.
# Tests used:
# Bet_v_1 = target: T1, Bet_v_1 (Betula pendula, UniProt P15494); experiment: Surface acoustic wave (SAW) interaction studies, determination of Kd; assay type: binding
# T1 construct: made in house
# T1 sequence (P15494 1-160): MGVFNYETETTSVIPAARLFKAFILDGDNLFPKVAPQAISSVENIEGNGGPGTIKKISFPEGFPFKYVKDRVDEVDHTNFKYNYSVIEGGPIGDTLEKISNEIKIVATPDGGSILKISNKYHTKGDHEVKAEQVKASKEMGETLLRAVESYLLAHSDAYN
# Excerpt: Surface acoustic wave (SAW) technology and NMR spectroscopy were used to observe the interaction of Bet_v_1 with the selected compounds, including determination of the dissociation constant (K d). The influence of ligand binding on the secondary structure elements and the thermal stability of Bet_v_1 was monitored using circular dichroism (CD, JASCO J‐815 spectropolarimeter, Jasco) and Fourier transform infrared (FTIR) spectroscopy (Tensor II FTIR system, Bruker Optics Inc). A detailed description of these methods is available (Appendix [Link], [Link]).
# To assess the interactions between Bet_v_1 and Q3OS, DOC, PPE1, LTA, or LPS, we determined the dissociation constants (K d) using SAW binding assays (Table 1, Figure S1), a more quantitative approach than previously described qualitative assays.11, 25 In addition, the LPS‐substructure Kdo2‐Lipid A (Kdo2) was used for binding studies, due to its more homogenous structure but similar immune stimulatory activity when compared to native LPS.
# For the determination of the affinity constant Kd, we used surface acoustic wave (SAW) technology. The interaction of the six ligands with Bet v 1 was investigated using a sam® 5BLUE biosensor instrument (Nanotemper, Munich, Germany). Bet v 1 was immobilized in PBS on the surface of a SAW CM-Dextran 3D sensor chip. […] For calculating the affinity constant Kd, different concentrations of the ligands dissolved in a 5 mM sodium phosphate buffer, pH 7.4, were applied to the Bet v 1-coupled chip. Depending on the ligand, the concentration range of the injected ligand varied between 5 µM and 500 µM. For the removal of residual ligand between the sample injections, the chip was washed with regeneration buffer (10 mM citric acid buffer, pH 2.8). The recorded SAW phase changes were analyzed using the software TraceDrawer 1.7 (Ridgeview Instruments, Uppsala, Sweden). The affinity constant Kd was calculated by kinetic evaluation and affinity/EC50 estimation. For kinetic evaluation, an OneToOne curve fit was chosen to match the raw data. Experiments were performed with two coated chips in duplicate, and the coupling efficiency was evaluated using a mouse monoclonal anti-Bet v 1 antibody.
# [1] = target: T2, Bet_v_1 (endolysosomal proteases of microsomes) (Betula pendula, UniProt P15494); experiment: In vitro simulation of endolysosomal degradation of Bet v 1 with microsomes; assay type: biochemical; settings: for accumulation of N‐terminal cluster peptides during Bet v 1 processing / generation of the immunodominant T‐cell epitope (number of identified peptides): 12 h degradation; for proteolytic stability of Bet v 1 toward endolysosomal proteases: ligand in 10× molar excess, 0-48 h, densitometric analysis of SDS‐PAGE
# T2 construct: made in house
# T2 sequence (P15494 1-160): T1 sequence (P15494 1-160)
# Protocol: The endolysosomal degradation assay was performed with ligand‐bound (either DOC, PPE1, or Q3OS in 10× molar excess) and Bet_v_1 without ligands (apo‐Bet_v_1) as previously described.21 Recombinant human cathepsin S and human legumain were used in proteolytic degradation assays. Experimental details are described in the Appendix [Link], [Link].
# The endolysosomal degradation assay was performed with ligand-bound (either DOC, PPE1, or Q3OS in 10× molar excess) and Bet v 1 without ligands (apo-Bet v 1) as previously described.^7 The protein (5 µg) was incubated with 7 µg of microsomes in 100 mM citrate buffer pH 4.8 and 2 mM dithiothreitol (DTT) for 0, 0.5, 1, 3, 6, 12, 24, and 48 h at 37°C. The different digestion preparations were analyzed by SDS-PAGE and quantitatively interpreted using Image Lab 4.0.1 Software (Bio-Rad). The generated peptides obtained after 12 h of digestion were analyzed using mass spectrometry with a Q-Exactive Orbitrap Mass Spectrometer (Thermo Fisher Scientific, Waltham, MA, USA), nanoelectrospray, and nano-HPLC (Dionex Ultimate 3000, Thermo Fisher Scientific).
# For data analysis, the web-based application MSTools was used.^8 For the semi-quantitative analysis of the abundance of the generated peptides at 12 hours of degradation, the obtained peptide sequences were clustered into 7 groups according to their amino acid sequence (cluster 1, GVF-NYE-TET-TSV-IPA-ARL-FKA-F; cluster 2, AIL-DGD-NLF-PKV-APQ-A; cluster 3, AIS-SVE-NIE-GNG-GPG-TIK-KIS-FPE-G; cluster 4, FPF-KYV-KDR-VDE-VDH-TNF-K; cluster 5, YNY-SVI-EGG-PIG-DTL-EKI-SNE-IKI-VAT-PDG-GSI-LK; cluster 6, ISN-KYH-TKG-DHE-VKA-EQV-KAS-KEM-GET-LLR; and cluster 7, RAV-ESY-LLA-HSD-AYN), and the total sum of peak areas of all sequences per cluster was calculated (in percentage).
# [2] = test system: human monocyte‐derived dendritic cells (moDCs); experiment: Activation and cytokine secretion of human moDCs; assay type: cell-based; settings: Bet v 1 in complex with ligand, 24 h, no LPS co-stimulation
# Protocol: The ability of ligand‐loaded Bet_v_1 to induce IgE‐antigen cross‐linking and basophil degranulation was assessed by mediator‐release assays using rat basophil (RBL‐2H3) cells, transfected with the human high‐affinity IgE receptor (FcεRI), as previously described.2, 24 In vitro uptake of labeled Bet_v_1 was performed using CD11c^+ murine bone marrow–derived dendritic cells (BMDCs). The maturation of human monocyte‐derived dendritic cells (moDCs) was analyzed as previously described.2 T‐cell proliferation assays using CD4^+ T‐cell hybridomas were performed as previously described.17 A detailed description of the in vitro assays is available (Appendix [Link], [Link]).
# Immature moDCs from PBMCs of either healthy/non-atopic donors (n=5) or atopic patients (n=7) were isolated and cultured as described elsewhere.^6 Cell viability using the Aqua® dye (Invitrogen, Carlsbad, CA, USA), expression of CD1a (eBioscience, Inc., San Diego, CA, USA) and loss of CD14 (BD Biosciences) expression were analyzed by flow cytometry on a Navios flow cytometer (Beckman Coulter, Brea, CA, USA). Cells (1x10^6 cells/ml) were stimulated for 24 hours with 1 µg/ml of Bet v 1 either alone or in complex with one of the three ligands (DOC, PPE1 or Q3OS). As a control, unstimulated moDCs and the individual ligands without Bet v 1 were used at the same concentrations. The cell supernatant was frozen for the analysis of cytokine secretion. Of note, no LPS co-stimulation was induced. The following maturation markers were investigated: CD40 (eBioscience), HLA-DR, CD80, CD83 and CD86 (BD Biosciences). Cytokine expression of CCL17, IL-1β, IL-10 (BD Biosciences), TNFα and IL-6 (eBioscience) was determined by ELISA. Statistical analysis was performed using one-way ANOVA with a Bonferroni post-test to compare all groups. The study was approved by the ethics committee of the medical faculty of Technical University of Munich (54/17 S).
# [3] = 12 h incubation, mass spectrometry
# [4] = Bet v 1 immobilized on chip, ligands in 5 mM sodium phosphate buffer pH 7.4, read-out: Binding affinity K d (SAW)
Structure (SMILES),Kd (Bet_v_1; Binding affinity K d (SAW)),"Kd (Bet_v_1; Kd (SAW, Fig. S1))",accumulation of N‐terminal cluster peptides during Bet v 1 processing [1],generation of the immunodominant T‐cell epitope (number of identified peptides) [1],"Bet v 1 peptide diversity reduced to (versus apo form) [1, 3]",proteolytic stability of Bet v 1 toward endolysosomal proteases [1],maturation marker expression and Th polarization‐associated cytokines [2],Kd (Bet_v_1; [4]),"Kd (Bet_v_1; Fig. S1 sensorgrams, read-out: Kd (SAW, Fig. S1))","diversity of peptides versus apo form of Bet v 1 [1, 3]"
"C[C@H](CCC(=O)O)[C@H]1CC[C@H]2[C@@H]3CC[C@@H]4C[C@H](O)CC[C@]4(C)[C@H]3C[C@H](O)[C@]12C [DOC, sodium deoxycholate, reference compound]",58.8 µM,58.8 µM,preferentially accumulated the two N‐terminal cluster peptides,more efficient generation of the immunodominant T‐cell epitope,69.7%,enhanced proteolytic stability,None of the above described readouts was influenced,,,
"CCC1C(=O)CC(O)C1/C=C/C(O)CCCCCCCC(=O)O (stereo not drawn) [PPE1, E1 phytoprostanes]",,,preferentially accumulated the two N‐terminal cluster peptides,,53.9%,enhanced proteolytic stability,None of the above described readouts was influenced,0.5 µM,,
"O=c1c(O[C@@H]2O[C@H](CO)[C@@H](O)[C@H](O)[C@H]2O[C@@H]2O[C@H](CO)[C@@H](O)[C@H](O)[C@H]2O)c(-c2ccc(O)c(O)c2)oc2cc(O)cc(O)c12 [Q3OS, quercetin 3‐O‐sophoroside]",,,,more efficient generation of the immunodominant T‐cell epitope,,only a weakly stabilizing effect over the first 12 hours,None of the above described readouts was influenced,1.5 µM,1.47 µM,2 fold
